According to US20050159431A1, “Substituted alkyl uracils and thereof” (Bayer Healthcare AG, priority 2002, published 2005):
Read-outs that look alike come from different tables or passages of the source.

Assays:
[1] = biological target: T1, human PARS enzyme (Homo sapiens, UniProt P09874); experiment: PARS inhibition test (in vitro); format: biochemical; settings: recombinant human PARS, [14C]-NAD+, 10 min room temperature
T1 construct: made in house; host or cells: baculovirus expression system (Bac-To-Bac, Life Technologies)
Protocol: The activity of substances as PARS inhibitors is tested in accordance with the method of Ushiro [Ushiro et al., J. Biol. Chem., 262, 2352-2357 (1987)]. To this end, recombinantly expressed (Bac-To-Bac, Baculo virus expression system; Instruction Manual; Life Technologies) human PARS enzyme is activated in a buffer which contains radioactively labeled [^14C]-NAD^+. The poly(ADP-ribose) units that are synthesized are precipitated using trichloroacetic acid, and the proportion of labeled protein is determined by scintillation measurements. Incubation of PARS with inhibitors leads to a decrease in the proportion of labeled protein and thus to a reduced radioactivity.
Inhibition of the PARS activity can be represented as a percentage of PARS inhibition in incubation with different substances or as the concentration at which 50% of the enzyme is inhibited, i.e. as IC50 value.
The compounds to be tested are dissolved in DMSO (dimethyl sulfoxide) at a concentration of 10 mM. The assay is carried out in deep 96-well plates. Per well, 70 μl of buffer, 10 μl of DNA, 10 μl of histones, 10 μl of NAD^+/[^14C]-NAD^+ mix and 0.5-5 μl of PARS (about 10,000 cpm/test) are combined with 1 μl of the compounds (final concentration 0.001-10 μM), to give a total volume of about 110 μl. The mixture is incubated at room temperature for 10 min, and 1 ml of ice-cold TCA solution is then added, and the precipitated labeled proteins are sucked onto a filter paper (printed filter mat A; from Wallac) using a harvester (from Scatron). The filter is dried, sealed together with a scintillation sheet (Multilex A; from Wallac) and measured in a p counter for 1 min per well.
In addition to the substances described in this application, the known PARS inhibitor 1,5-dihydroxyisoquinoline (DHCH) is tested as reference substance. The results of the test are stated as IC50 values for the inhibition of PARS.

[2] = system: MHEC5-T cells; experiment: Cell protection assay (in vitro), H2O2-induced cell death; format: cell-based; settings: MHEC5-T endothelial cells
Protocol: In accordance with a method described by Bowes [Bowes et al., Br. J. Pharmacol., 124, 1760-1766 (1998)], the ability of PARS inhibitors to protect cells against cell death induced by incubation with H2O2 is examined in a cell protection assay. Incubation of endothelial cells with H2O2 results in the generation of DNA strand breaks which in turn activate PARS, resulting in a drastic energy decrease in the cells and in cell death. Living cells are quantified by a fluorimetric redox indicator (Alamar blue), which is converted in the electron transport system of the mitochondria.
Specifically, 7500 MHEC5-T cells/well (DSM ACC 336; German collection of microorganisms and cell cultures) are sown in 4 replications on a 96-well plate. After 24 hours, the cells are incubated with 3 mM aqueous H2O2 solution and differing concentrations of the substances in the presence of 6% by volume of Alamar blue solution in the medium at 37° C. for 5 hours. The reference substance used is 10 μM 1,5-dihydroxyisoquinoline (DHCH) solution. After the incubation, the fluorescence is measured at an excitation wavelength of 530-560 nm and an emission wavelength of 590 nm. The percentage for the cell protection is calculated as the difference between the living cells treated only with H2O2 and the cells treated with H2O2 and PARS inhibitors. The internal standard used is 10 μM DHCH, which is defined as 100% protection. The results obtained for the other substances are compared to this value.
The EC50 values indicate the concentration at which 50% of maximum cell protection is reached, maximum protection by 10 μM DHCH being defined as 100%. DHCH has an EC50 value of 2 μM.

[3] = 3 mM H2O2, 5 hours, Alamar blue, 10 μM DHCH defined as 100% protection, read-out: Cell protection (in vitro) EC50

T1 sequence (P09874 whole entry): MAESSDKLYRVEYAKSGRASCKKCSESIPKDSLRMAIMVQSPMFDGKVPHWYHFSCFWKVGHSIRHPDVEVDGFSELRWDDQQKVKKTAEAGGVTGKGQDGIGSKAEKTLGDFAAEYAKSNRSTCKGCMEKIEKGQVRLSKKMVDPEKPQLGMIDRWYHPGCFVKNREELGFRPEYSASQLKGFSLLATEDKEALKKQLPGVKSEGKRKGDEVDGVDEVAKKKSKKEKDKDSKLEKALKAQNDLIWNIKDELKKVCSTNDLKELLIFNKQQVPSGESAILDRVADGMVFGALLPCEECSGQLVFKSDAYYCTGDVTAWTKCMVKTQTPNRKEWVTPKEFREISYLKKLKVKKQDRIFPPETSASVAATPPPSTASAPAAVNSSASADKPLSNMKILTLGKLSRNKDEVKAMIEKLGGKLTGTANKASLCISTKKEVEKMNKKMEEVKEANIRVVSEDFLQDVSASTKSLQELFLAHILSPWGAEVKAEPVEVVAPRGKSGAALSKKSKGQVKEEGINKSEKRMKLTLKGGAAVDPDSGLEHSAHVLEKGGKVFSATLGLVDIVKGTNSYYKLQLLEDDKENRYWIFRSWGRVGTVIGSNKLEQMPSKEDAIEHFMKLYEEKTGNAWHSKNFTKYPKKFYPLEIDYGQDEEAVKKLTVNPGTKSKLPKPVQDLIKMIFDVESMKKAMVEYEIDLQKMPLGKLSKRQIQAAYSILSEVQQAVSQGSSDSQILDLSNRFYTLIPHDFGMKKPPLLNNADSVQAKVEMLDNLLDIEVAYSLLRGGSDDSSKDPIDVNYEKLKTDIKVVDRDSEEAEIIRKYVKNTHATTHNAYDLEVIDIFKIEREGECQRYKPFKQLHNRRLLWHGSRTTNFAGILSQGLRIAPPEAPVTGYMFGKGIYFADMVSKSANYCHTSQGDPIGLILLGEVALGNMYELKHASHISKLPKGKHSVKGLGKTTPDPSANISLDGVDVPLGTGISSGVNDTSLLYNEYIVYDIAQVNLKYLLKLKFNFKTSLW

Structure (SMILES)	IC50 [1] [nM]	EC50 ([2]; 3 mM H2O2, maximum protection by 10 μM DHCH defined as 100%, read-out: EC50 value cell protection) [nM]	EC50 [2, 3] [nM]
Oc1cccc2c(O)nccc12 [DHCH, 1,5-dihydroxyisoquinoline, reference compound]	300	2000	–
O=Cc1ccc(CCn2c3c(c(=O)[nH]c2=O)CSCC3)cc1 [Example 5]	–	–	150
O=c1[nH]c(=O)n(CCc2ccc(CN3CCCCC3)cc2)c2c1CSCC2 [Example 61]	–	–	100
O=c1[nH]c(=O)n(CCCn2cnc([N+](=O)[O-])c2)c2c1CSCC2 [Example 65]	–	–	90
O=c1[nH]c(=O)n(CCc2cccnc2)c2c1CSCC2 [Example 66]	–	–	650
O=c1[nH]c(=O)n(CCCn2ccnc2)c2c1CSCC2 [Example 76]	–	–	500

Now from value to molecule, other results behind:

IC50 [1] [nM]	Structure (SMILES)	EC50 ([2]; 3 mM H2O2, maximum protection by 10 μM DHCH defined as 100%, read-out: EC50 value cell protection) [nM]	EC50 [2, 3] [nM]
60	O=c1[nH]c(=O)n(CCc2ccc(Br)cc2)c2c1CSCC2 [Example 1, 1-[2-(4-Bromophenyl)ethyl]-1,5,7,8-tetrahydro-2H-thiopyrano[4,3-d]pyrimidine-2,4(3H)-dione]	–	–
50	O=c1[nH]c(=O)n(CCc2ccc(CNCCO)cc2)c2c1CSCC2 [Example 6, 1-[2-(4-{[(2-Hydroxyethyl)amino]methyl}phenyl)ethyl]-1,5,7,8-tetrahydro-2H-thiopyrano-[4,3-d]pyrimidine-2,4(3H)-dione]	–	–
85	Cc1cn(CCCn2c3c(c(=O)[nH]c2=O)CSCC3)cn1 [Example 8, 1-[3-(4-Methyl-1H-imidazol-1-yl)propyl]-1,5,7,8-tetrahydro-2H-thiopyrano[4,3-d]pyrimidine-2,4(3H)-dione]	–	–
20	O=c1[nH]c(=O)n(CCc2ccc([N+](=O)[O-])cc2)c2c1CSCC2 [Example 40]	–	–
80	Cc1[nH]ncc1CCCn1c2c(c(=O)[nH]c1=O)CSCC2 [Example 53]	–	–
75	O=c1[nH]c(=O)n(Cc2cccnc2)c2c1CSCC2 [Example 56]	–	–
800	CC(C)N1CCN(C(=O)c2ccc(CCn3c4c(c(=O)[nH]c3=O)CSCC4)cc2)CC1 [Example 62]	–	–
